# Laboratory results published in patent US20200262813A1, “1,5,7-TRISUBSTITUTED ISOQUINOLINE DERIVATIVES, PREPARATION THEREOF, AND USE THEREOF IN MEDICINES” (SHANGHAI HAIYAN PHARMACEUTICAL TECHNOLOGY CO., LTD., priority 2016, published 2020).
# Where two headings read alike, the source gives them in different places.
# What was measured:
# Pfeiffer cells = assay: Cell proliferation test (cell counting kit-8, 6 days); assay type: cell-based; details: 6 days' growth
# Procedure: Cells were harvested by centrifuge and densities were determined using a CounterStar cell counter. Appropriate number of cells were plated in a 96-well culture plate and incubated overnight. Compounds to be tested were 1:3 diluted for 8 gradient points and added into corresponding wells. After 6 days' growth, cell counting kit-8 (Dojindo) was used to detect cell viability and absorbance values were read on Tecan infinite pro.
# [1] = biological target: Recombinant PRC2 (EZH2-Y641F) (Homo sapiens, UniProt Q15910, Y641F); assay: In vitro methyltransferase activity test (LANCE Ultra); details: LANCE Ultra detection, 3 hours reaction;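 further: compounds tested as an 8-point threefold dilution series, fluorescence read after 1 h detection step at room temperature, IC50 derived from a four-parameter curve fit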
# Procedure: In Vitro Methyltransferase Activity Test
# Recombinant PRC2 (EZH2-Y641F) was purchased from Active motif, S-adenosyl-methionine (SAM) and Poly-L-lysine (PLL) were purchased from Sigma-Aldrich, H3(1-50)K27mel polypeptide was purchased from Cisbio. LANCEUltra system (Perkinelmer) was used for detection. In the enzyme activity test, a compound to be tested was 1:3 diluted for 8 gradient points, added into a reaction plate, and then added 100 ng recombinant enzyme. And then a buffer [20 mM Tris pH8.5, 2 mM MgCl2, 0.01% Tween-20, 1 mM TCEP] containing 2.5 M SAM/250 nM H3(1-50)K27mel premixture was added to conduct an enzyme reaction at room tempreture. After reacted for 3 hours, a dection solution containing premixed PLL, detection antibody and Ulight was added, reacted for 1 h at RT, then fluorescence was read on Tecan infinite pro. IC50s were calculated by four-factor model fitting in a XLfit software.
# [2] = EZH2 Y641F IC50, Recombinant PRC2 (EZH2-Y641F)
# [3] = read-out: EZH2 Y641F IC50, Recombinant PRC2 (EZH2-Y641F)
# Sequence of Recombinant PRC2 (EZH2-Y641F) (Q15910 whole entry Y641F): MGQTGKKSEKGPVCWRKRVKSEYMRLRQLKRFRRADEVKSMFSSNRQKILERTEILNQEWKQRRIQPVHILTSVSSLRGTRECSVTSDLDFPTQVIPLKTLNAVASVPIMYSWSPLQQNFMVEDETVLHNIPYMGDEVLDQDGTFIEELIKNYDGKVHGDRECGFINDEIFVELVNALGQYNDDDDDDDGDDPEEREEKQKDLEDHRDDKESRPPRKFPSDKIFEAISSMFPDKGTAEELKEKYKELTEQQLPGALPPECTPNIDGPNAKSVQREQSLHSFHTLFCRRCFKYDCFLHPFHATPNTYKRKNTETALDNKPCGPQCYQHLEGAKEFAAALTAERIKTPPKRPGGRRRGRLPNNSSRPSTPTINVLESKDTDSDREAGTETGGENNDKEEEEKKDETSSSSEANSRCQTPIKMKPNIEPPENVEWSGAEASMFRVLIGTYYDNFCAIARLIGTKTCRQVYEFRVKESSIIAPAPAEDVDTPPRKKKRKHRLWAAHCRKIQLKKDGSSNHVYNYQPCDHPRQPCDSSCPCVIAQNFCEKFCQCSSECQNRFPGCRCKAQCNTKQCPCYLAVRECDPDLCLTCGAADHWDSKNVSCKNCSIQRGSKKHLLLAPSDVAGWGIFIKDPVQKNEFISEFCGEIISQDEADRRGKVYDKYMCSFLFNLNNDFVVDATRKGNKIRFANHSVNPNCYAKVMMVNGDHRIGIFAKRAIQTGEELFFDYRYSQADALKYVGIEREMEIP
# Sequence of Recombinant PRC2 (EZH2-Y641F) (O75530 whole entry partner): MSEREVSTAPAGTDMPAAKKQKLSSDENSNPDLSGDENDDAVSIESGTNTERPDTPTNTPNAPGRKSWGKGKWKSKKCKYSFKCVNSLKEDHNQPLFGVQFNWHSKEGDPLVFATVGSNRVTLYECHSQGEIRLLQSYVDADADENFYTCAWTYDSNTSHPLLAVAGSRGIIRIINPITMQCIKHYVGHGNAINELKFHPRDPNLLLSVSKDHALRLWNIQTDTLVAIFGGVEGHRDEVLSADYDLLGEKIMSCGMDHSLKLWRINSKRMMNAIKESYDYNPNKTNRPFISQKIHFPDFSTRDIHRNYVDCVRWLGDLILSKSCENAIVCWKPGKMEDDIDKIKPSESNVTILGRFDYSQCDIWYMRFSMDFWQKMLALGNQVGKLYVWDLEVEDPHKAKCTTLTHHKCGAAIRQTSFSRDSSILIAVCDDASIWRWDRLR
# Sequence of Recombinant PRC2 (EZH2-Y641F) (Q15022 whole entry partner): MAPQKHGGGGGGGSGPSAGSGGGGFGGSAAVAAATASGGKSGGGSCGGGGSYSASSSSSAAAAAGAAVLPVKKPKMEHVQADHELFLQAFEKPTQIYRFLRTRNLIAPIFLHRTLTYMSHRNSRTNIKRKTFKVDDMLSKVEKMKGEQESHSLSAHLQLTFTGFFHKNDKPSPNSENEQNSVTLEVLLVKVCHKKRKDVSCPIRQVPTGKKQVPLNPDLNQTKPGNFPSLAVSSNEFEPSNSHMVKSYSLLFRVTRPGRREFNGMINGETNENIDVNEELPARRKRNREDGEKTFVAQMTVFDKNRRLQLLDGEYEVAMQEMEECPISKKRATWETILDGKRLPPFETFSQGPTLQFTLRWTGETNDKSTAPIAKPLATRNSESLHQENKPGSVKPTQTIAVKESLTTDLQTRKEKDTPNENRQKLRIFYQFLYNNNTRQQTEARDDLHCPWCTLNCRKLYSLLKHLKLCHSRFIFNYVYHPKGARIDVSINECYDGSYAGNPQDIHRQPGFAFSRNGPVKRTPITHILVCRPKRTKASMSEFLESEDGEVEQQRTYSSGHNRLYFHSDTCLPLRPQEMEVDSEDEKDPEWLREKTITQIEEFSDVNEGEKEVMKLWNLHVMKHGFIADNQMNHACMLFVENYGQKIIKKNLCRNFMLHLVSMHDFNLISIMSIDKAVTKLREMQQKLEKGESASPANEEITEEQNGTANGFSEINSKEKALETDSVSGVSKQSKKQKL
# Sequence of Recombinant PRC2 (EZH2-Y641F) (Q09028 whole entry partner): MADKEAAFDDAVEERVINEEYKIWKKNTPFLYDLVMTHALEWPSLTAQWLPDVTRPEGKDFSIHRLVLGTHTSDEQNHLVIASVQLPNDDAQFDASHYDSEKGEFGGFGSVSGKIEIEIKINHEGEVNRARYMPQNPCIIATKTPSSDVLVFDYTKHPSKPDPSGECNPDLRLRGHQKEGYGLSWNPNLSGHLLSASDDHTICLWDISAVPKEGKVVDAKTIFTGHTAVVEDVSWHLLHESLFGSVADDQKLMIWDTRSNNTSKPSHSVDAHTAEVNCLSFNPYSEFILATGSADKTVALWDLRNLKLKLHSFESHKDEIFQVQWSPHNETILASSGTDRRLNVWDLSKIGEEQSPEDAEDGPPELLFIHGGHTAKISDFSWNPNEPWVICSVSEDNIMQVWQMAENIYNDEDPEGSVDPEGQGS
# Sequence of Recombinant PRC2 (EZH2-Y641F) (Q6ZN18 whole entry partner): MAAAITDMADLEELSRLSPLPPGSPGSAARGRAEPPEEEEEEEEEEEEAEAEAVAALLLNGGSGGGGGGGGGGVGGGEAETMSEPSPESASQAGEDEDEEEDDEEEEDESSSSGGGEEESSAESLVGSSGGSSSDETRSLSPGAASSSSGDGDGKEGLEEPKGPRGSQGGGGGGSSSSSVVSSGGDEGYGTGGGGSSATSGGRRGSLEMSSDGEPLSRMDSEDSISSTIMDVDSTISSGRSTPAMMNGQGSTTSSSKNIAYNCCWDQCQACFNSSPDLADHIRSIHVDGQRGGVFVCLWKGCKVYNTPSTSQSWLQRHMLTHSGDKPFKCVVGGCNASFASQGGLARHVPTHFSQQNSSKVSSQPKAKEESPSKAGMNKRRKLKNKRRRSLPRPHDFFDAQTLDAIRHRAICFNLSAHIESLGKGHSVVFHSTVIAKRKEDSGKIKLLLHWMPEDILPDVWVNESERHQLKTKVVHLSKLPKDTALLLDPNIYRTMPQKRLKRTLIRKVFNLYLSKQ
"IC50 [1, 2] [nM]","IC50 [1, 3] [nM]",Compound,"IC50 (Pfeiffer cells; Homo sapiens, Pfeiffer, 144 h) [nM]",IC50 (Pfeiffer cells) [nM]
13,–,"CCN(c1cc(-c2ccc(C3CCN(C)CC3)nc2)cc2c(NCc3c(C)cc(C)[nH]c3=O)nccc12)[C@H]1CC[C@H](N(C)C)CC1 [Compound Z-17, 3-((5-(((1R,4R)-4-(dimethylamino)cyclohexyl) (ethyl)amino)-7-(6-(1-methylpiperidine-4-yl)pyridine-3-yl)-isoquinolinylamino)methyl)-4,6-dimethylpyridine-2(1H)-one]",768,–
221,–,CCN(c1cc(-c2ccc(CN3CCN(C)CC3)nc2)cc2c(NCc3c(C)cc(C)[nH]c3=O)nccc12)C1CCOCC1 [Compound Z-35],–,611
28,–,CCN(c1cc(-c2ccc(CN3CCCCC3)cc2)cc2c(NCc3c(C)cc(C)[nH]c3=O)nccc12)C1CCC(N(C)C)CC1 (centres unmarked) [Compound Z-37],991,–
16,–,CCN(c1cc(-c2ccc(N3CCOCC3)nc2)cc2c(NCc3c(C)cc(C)[nH]c3=O)nccc12)C1CCC(N(C)C)CC1 (centres unmarked) [Compound Z-39],507,–
38,–,CCN(c1cc(-c2ccc(CN(C)C)cc2)cc2c(NCc3c(C)cc(C)[nH]c3=O)nccc12)C1CCC(N(C)C)CC1 (centres unmarked) [Compound Z-45],599,–
14,–,CCN(c1cc(-c2cnc(N3CCOCC3)nc2)cc2c(NCc3c(C)cc(C)[nH]c3=O)nccc12)[C@H]1CC[C@H](N(C)C)CC1 [Compound Z-46],362,–
19,–,CCN(c1cc(-c2ccc(CN3CCN(C)CC3)cc2)cc2c(NCc3c(C)cc(C)[nH]c3=O)nccc12)[C@H]1CC[C@H](N(C)C)CC1 [Compound Z-54],614,–
–,–,CCN(c1cc(-c2ccc(CN3CCN(C)CC3)nc2)cc2c(NCc3c(C)cc(C)[nH]c3=O)nccc12)[C@H]1CC[C@@H](N(C)C)CC1 [Compound Z-58],–,359
9,–,CCN(c1cc(-c2cccnc2)cc2c(NCc3c(C)cc(C)[nH]c3=O)nccc12)[C@H]1CC[C@@H](N(C)C)CC1 [Compound Z-64],357,–
52,–,CCN(c1cc(-c2cncnc2)cc2c(NCc3c(C)cc(C)[nH]c3=O)nccc12)C1CCC(N(C)C)CC1 (centres unmarked) [Compound Z-65],972,–
159,–,CCN(c1cc(-c2ccc(N3CCOCC3)nc2)cc2c(NCc3c(C)cc(C)[nH]c3=O)nccc12)C1CCN(C(C)C)CC1 [Compound Z-66],766,–
–,–,CCN(c1cc(-c2ccc(N3CCOCC3)nc2)cc2c(NCc3c(C)cc(C)[nH]c3=O)nccc12)C1CCC(O)CC1 (centres unmarked) [Compound Z-70],–,516
150,–,CCN(c1cc(-c2ccncc2)cc2c(NCc3c(C)cc(C)[nH]c3=O)nccc12)[C@H]1CC[C@H](N(C)C)CC1 [Compound Z-73],593,–
326,–,CCN(c1cc(-c2ccc(N3CCN(C)CC3)nc2)cc2c(NCc3c(C)cc(C)[nH]c3=O)nccc12)C1CCN(C2CC2)CC1 [Compound Z-74],799,–
269,–,CCN(c1cc(-c2cccnc2)cc2c(NCc3c(C)cc(C)[nH]c3=O)nccc12)C1CCC(O)CC1 (centres unmarked) [Compound Z-85],521,–
128,–,CCN(c1cc(-c2ccc(N3CCN(C)CC3)nc2)cc2c(NCc3c(C)cc(C)[nH]c3=O)nccc12)C1CCC(O)CC1 (centres unmarked) [Compound Z-86],483,–
43,–,CCN(c1cc(-c2cnc(N3CCN(C)CC3)nc2)cc2c(NCc3c(C)cc(C)[nH]c3=O)nccc12)C1CCC(O)CC1 (centres unmarked) [Compound Z-89],401,–
75,–,CCN(c1cc(C2=CCN(C)CC2)cc2c(NCc3c(C)cc(C)[nH]c3=O)nccc12)C1CCC(O)CC1 (centres unmarked) [Compound Z-91],291,–
–,–,CCN(c1cc(-c2cnc(N3CCOCC3)nc2)cc2c(NCc3c(C)cc(C)[nH]c3=O)nccc12)C1CCN(C2CC2)CC1 [Compound Z-92],–,688
74,–,CCN(c1cc(-c2ccc(C3CC3)nc2)cc2c(NCc3c(C)cc(C)[nH]c3=O)nccc12)C1CCC(N(C)C)CC1 (centres unmarked) [Compound Z-93],279,–
159,–,CCN(c1cc(-c2ccc(N3CCN(C)CC3)nc2)cc2c(NCc3c(C)cc(C)[nH]c3=O)nccc12)C1CCC(F)(F)CC1 [Compound Z-94],384,–
283,–,CCN(CCN(C)C)c1cc(-c2ccc(N3CCN(C)CC3)nc2)cc2c(NCc3c(C)cc(C)[nH]c3=O)nccc12 [Compound Z-97],326,–

"IC50 [1, 2] [nM]","IC50 [1, 3] [nM]",Compound,"IC50 (Pfeiffer cells; Homo sapiens, Pfeiffer, 144 h) [nM]",IC50 (Pfeiffer cells) [nM]
251,–,CCN(c1cc(-c2cnc(N3CCOCC3)nc2)cc2c(NCc3c(C)cc(C)[nH]c3=O)nccc12)C1CCC(O)CC1 (centres unmarked) [Compound Z-99],201,–
197,–,CCN(c1cc(-c2ccc(CN3CCN(C)CC3)nc2)cc2c(NCc3c(C)cc(C)[nH]c3=O)nccc12)C1CCC(F)(F)CC1 [Compound Z-105],988,–
–,283,CCN(c1cc(-c2cnc(N3CCOCC3)nc2)cc2c(NCc3c(C)cc(C)[nH]c3=O)nccc12)[C@H]1CC[C@@H](O)CC1 [Compound Z-108],–,612
37,–,Cc1cc(C)c(CNc2nccc3c(N(C)C4CCC(N(C)C)CC4)cc(-c4ccc(N5CCN(C)CC5)nc4)cc23)c(=O)[nH]1 (centres unmarked) [Compound Z-111],478,–
96,–,CCN(c1cc(-c2ccc(CN3CCN(C(C)C)CC3)nc2)cc2c(NCc3c(C)cc(C)[nH]c3=O)nccc12)C1CCOCC1 [Compound Z-112],595,–
–,112,CCN(c1cc(Oc2cccnc2)cc2c(NCc3c(C)cc(C)[nH]c3=O)nccc12)[C@H]1CC[C@H](N(C)C)CC1 [Compound Z-188],–,–
307,–,CCN(c1cc(N2CCN(C3CCOCC3)CC2)cc2c(NCc3c(C)cc(C)[nH]c3=O)nccc12)C1CCC(N(C)C)CC1 (centres unmarked) [Compound Z-189],–,–
472,–,CCN(c1cc(Oc2ccccc2)cc2c(NCc3c(C)cc(C)[nH]c3=O)nccc12)[C@H]1CC[C@H](N(C)C)CC1 [Compound Z-190],–,–
206,–,CCN(c1cc(-c2ccc(N3CCN(C)CC3)nc2)cc2c(NCc3c(OC)cc(C)[nH]c3=O)nccc12)C1CCN(C(C)C)CC1 [Compound Z-191],–,–
24,–,CCc1cc(C)[nH]c(=O)c1CNc1nccc2c(N(CC)C3CCC(N(C)C)CC3)cc(Cl)cc12 (centres unmarked) [Compound Z-204],–,–
35,–,CCN(c1cc(Cl)cc2c(NCc3c(C)cc(C)[nH]c3=O)nccc12)C1CCC(N2CCC2)CC1 (centres unmarked) [Compound Z-205],–,–
32,–,CCN(c1cc(Cl)cc2c(NCc3c(C)cc(C)[nH]c3=O)nccc12)C1CC2(CNC2)C1 [Compound Z-207],–,–
185,–,CCN(c1cc(C2CCN(C)CC2)cc2c(NCc3c(C)cc(C)[nH]c3=O)nccc12)C1CCC(O)CC1 (centres unmarked) [Compound Z-212],–,–
373,–,CCN(c1cc(C(C)C)cc2c(NCc3c(C)cc(C)[nH]c3=O)nccc12)[C@H]1CC[C@H](N(C)C)CC1 [Compound Z-214],–,–
365,–,"CCN(c1cc(-c2ccc(N3CCN(C)CC3)nc2)cc2c(NCc3c(C)n(C)[nH]c3=O)nccc12)C1CCC(N(C)C)CC1 (centres unmarked) [Compound Z-216, 4-((5-((4-(dimethylamino)cyclohexyl)(ethyl)amino)-7-(6-(4-methylpiperazin-1-yl)pyridine-3-yl)isoquinolin-1-ylamino)methyl)-1,5-dimethyl-H-pyrazol-3-(2H)-one]",–,–
194,–,"CCN(c1cc(-c2cnc(N3CCN(C)CC3)nc2)cc2c(NCc3c(C)cc(C)[nH]c3=O)nccc12)C1CCC(C)(O)CC1 (centres unmarked) [Compound Z-221, 3-((5-(ethyl(4-hydroxy-4-methylcyclohexyl)amino)-7-(2-(4-methylpiperazin-1-yl)pyrimidin-5-yl)isoquinolin-1-ylamino)methyl)-4,6-dimethyl pyridin-2(1H)-one]",–,–
45,–,"CCN(c1cc(-c2ccc(N3CCN(C)CC3)nc2)cc2c(NCc3c(C)cc(C)[nH]c3=O)ncc(F)c12)C1CCC(N(C)C)CC1 (centres unmarked) [Compound Z-223, 3-((5-((4-(dimethylamino)cyclohexyl)(ethyl)amino)-4-fluoro-7-(6-(4-methylpiperazin-1-yl)pyridin-3-yl)isoquinolin-1-ylamino)methyl)-4,6-dimethyl-2(1H)-one]",–,–
68,–,"CCN(c1cc(-c2ccc(N3CCN(C)CC3)nc2)cc2c(NCc3c(C)cc(C)[nH]c3=O)nccc12)C1CCC(NC(C)=O)CC1 (centres unmarked) [Compound Z-225, N-(4-((1-((4,6-dimethyl-2-oxo-1,2-dihydropyridin-3-yl)methylamino)-7-(6-(4-methylpiperazin-1-yl)pyridin-3-yl)isoquinolin-5-yl) (ethyl)amino)cyclohexyl) acetamide]",–,–
64,–,"CCN(c1cc(C(N)=O)cc2c(NCc3c(C)cc(C)[nH]c3=O)nccc12)[C@H]1CC[C@H](N(C)C)CC1 [Compound Z-227, 1-((4,6-dimethyl-2-oxo-1,2-dihydropyridin-3-yl)methylamino)-5-(((1R,4R)-4-(dimethylamino)cyclohexyl) (ethyl)amino) isoquinoline-7-carboxamide]",–,–
429,–,CCN(c1cc(Cl)cc2c(NCc3c(C)cc(C)[nH]c3=O)nccc12)C1CCN(S(C)(=O)=O)CC1 [Compound Z-229],–,–
174,–,"CCN(c1c(F)c(-c2ccc(N3CCN(C)CC3)nc2)cc2c(NCc3c(C)cc(C)nc3O)nccc12)[C@H]1CC[C@@H](N(C)C)CC1 [Compound Z-231, 3-((5-(((1S,4S)-4-(dimethylamino)cyclohexyl) (ethyl)amino)-6-fluoro-7-(6-(4-methylpiperazin-1-yl)pyridin-3-yl)isoquinolin-1-ylamino)methyl)-4,6-dimethyl-2(1H)-one]",–,–
129,–,"CCN(c1cc(C(C)C)cc2c(NCc3c(C)cc(C)[nH]c3=O)nccc12)C1CCNCC1 [Compound Z-235, 3-((5-(ethyl (piperidin-4-yl)amino)-7-isopropylisoquinolin-1-ylamino)methyl)-4,6-dimethyl-2(1H)-one]",–,–
